# Measurements reported in a melting point compilation (Tetko et al.).
row,SMILES,melting point [°C]
1,O=C(O)c1cccc(NC(=O)c2ccc3[nH]cnc3c2)c1,305 to 307
2,NCc1ccc(-c2ccc3c(c2)CCCO3)cc1,89 to 91
3,O=C(O)CCCc1ccc2ccccc2c1,91 to 93
4,CN(CC(=O)Nc1ccc(F)cc1)C(=O)CCl,159 to 161
5,CC(C)n1cc2cc(N)ccc2n1,105 to 107
6,O=C(CSc1ccccc1C(=O)O)NC1CCCCCCC1,168 to 170
7,CC(O)c1cn(CC(=O)O)nn1 (stereo not given),134 to 136
8,CN(CCCC(=O)O)S(=O)(=O)c1ccc(F)cc1,74 to 76
9,O=C1CCCc2cc(O)ccc2N1,219 to 221
10,CC(C)(C)OC(=O)NCCNS(=O)(=O)c1cccc(N)c1,148 to 150
11,Cc1ccc(C)c(-n2ccnc2SCC(=O)O)c1,128 to 130
12,N#Cc1ccc(Nc2ccc(Cl)cc2)cc1,139 to 141
13,Nc1ccnn1Cc1ccncc1,219 to 221
14,Cc1cc(C(=O)O)c(C)nn1,132 to 134
15,CC(C)C(=O)CNC(=O)c1ccc([N+](=O)[O-])cc1,106 to 108
16,CC1CN(Cc2ccccc2N)CC(C)O1 (stereo not given),93 to 95
17,CCOc1cc(Br)c(CC(=O)O)cc1OCC,128 to 129
18,O=CC(Br)C=Nc1nccs1 (stereo not given),137 to 139
19,Cc1ccncc1C(=O)O,199 to 201
20,COc1ccc(Br)c2[nH]c(C(=O)O)cc12,246 to 248
21,Cn1cc(C(=O)O)c(-c2cccnc2)n1,201 to 203
22,COc1cccc(-c2n[nH]cc2C=O)c1,91 to 93
23,Cc1cccc(/C=C/c2cc(C(=O)O)c3cc(Br)ccc3n2)c1,286 to 288
24,CC(=O)c1nc2cc(Cl)ccc2n1C,96 to 98

row,SMILES,melting point [°C]
1,COC(=O)c1c[nH]c2ncccc12,208 to 210
2,CC1CC(C)CN(S(=O)(=O)c2ccc(NN)nc2)C1 (stereo not given),217 to 219
3,CCCCOc1ccc(C(N)=O)cc1,162 to 164
4,Cc1nn(C)c(C)c1C(=O)NC1(C(=O)O)CCCC1,235 to 237
5,N#Cc1cnc2ccccc2c1OCCO,172 to 174
6,CCCN1Cc2ccc(N)cc2C1,48 to 50
7,Cc1ccc(C(=O)N(C)C)cc1O,153 to 155
8,O=C(O)c1cn(-c2cccc(C(F)(F)F)c2)nn1,149 to 151
9,Cc1cc(NC(=O)C(C)Cl)no1 (stereo not given),132 to 134
10,CSc1ccc(C(=O)O)o1,126 to 128
11,O=c1ccccn1CCBr,126 to 128
12,COc1ccc2ccccc2c1-c1cc(CBr)on1,85 to 87
13,CCn1c(C)nc2cc(S(=O)(=O)C(F)F)ccc21,161 to 163
14,Cc1[nH][nH]c(=O)c1CCO,183 to 185
15,O=C(O)Cc1cc(=O)n(-c2ccccn2)[nH]1,98 to 100
16,O=C(c1cccc([N+](=O)[O-])c1)N1CCNCC1,145 to 147
17,O=c1c2sc(-c3ccccc3)cc2nc(S)n1Cc1ccccc1,313 to 315
18,O=C(Nc1cccc2ccccc12)OCC(F)(F)F,109 to 111
19,O=C(O)c1cc(-c2ccccc2)ccc1Cl,199 to 201
20,COc1ccc([N+](=O)[O-])cc1NC(=O)CCCl,159 to 161
21,N#CCC(=O)Nc1ccncc1,181 to 183
22,CCOC(=O)c1c(-c2ccc(C)s2)csc1N,93 to 95
23,O=C(O)C1CCCN(S(=O)(=O)c2ccc(F)cc2)C1 (stereo not given),156 to 160
24,O=C(Cc1ccc(Br)cc1)Nc1ccsc1C(=O)O,226 to 228

row,SMILES,melting point [°C]
1,O=C(O)CNCc1c(F)cccc1Cl,184 to 186
2,Nc1cccc(C(=O)Nc2cccc(C(F)(F)F)c2)c1,114 to 115
3,COC(=O)c1sc2nc(CCl)nc(Cl)c2c1C,125 to 127
4,CCc1ccccc1N(C(C)=O)c1nc(CN=C=S)cs1,96 to 98
5,COc1ccc(-c2nn(CCC#N)cc2C(=O)O)cc1[N+](=O)[O-],190 to 192
6,O=C(O)[C@@H]1CCCN1C(=O)NCc1cccc(Br)c1,146 to 148
7,CC(C)(C)OC(=O)N1CCCc2cc(N)ccc21,55 to 57
8,COc1ccccc1-c1nn(-c2ccccc2)cc1C(=O)O,195 to 197
9,NNc1ccc(S(=O)(=O)NC2CC2)cn1,195 to 197
10,COC(=O)c1c(N)cccc1F,53 to 55
11,CNc1cc(C(F)(F)F)nc2ccccc12,159 to 161
12,Cc1c(N)cccc1C#N,90 to 92
13,O=C(O)C1CCCN1C(=O)c1ccccc1O (stereo not given),134 to 136
14,O=C(NC(Cc1cccnc1)C(=O)O)c1ccccc1 (stereo not given),176 to 178
15,CC1N=C(S)N(C2CC2)C1=O (stereo not given),< 17
16,O=Cc1ncc(-c2cccc(Br)c2)[nH]1,209 to 211
17,CC(O)C(NC(=O)C1CC1)C(=O)O (stereo not given),138 to 140
18,O=C1CNC(=O)N1CCCl,114 to 116
19,Cc1ccc(CNCCO)cc1,62 to 64
20,Cc1cc(S(N)(=O)=O)c(C)o1,86 to 88
21,O=C1c2ccccc2C(=O)N1CCc1ncc[nH]1,243 to 245
22,O=C(O)c1cccc2c3c([nH]c12)CCCC3,190 to 192
